According to patent publication US9637483B2, “Heterocyclic compound” (TAKEDA PHARMACEUTICAL COMPANY LIMITED, priority 2013, dated 2017):

Experiments:
Format in all cases: biochemical
[1] = target: T1, JAK3 (Homo sapiens, UniProt P52333); assay: JAK3 enzyme inhibition test (LANCE method); settings: 1 μM test compound; read-out: JAK3 enzyme inhibitory activity (%, 1 μM)
T1 construct: purchased Invitrogen
T1 sequence (P52333 1-1124): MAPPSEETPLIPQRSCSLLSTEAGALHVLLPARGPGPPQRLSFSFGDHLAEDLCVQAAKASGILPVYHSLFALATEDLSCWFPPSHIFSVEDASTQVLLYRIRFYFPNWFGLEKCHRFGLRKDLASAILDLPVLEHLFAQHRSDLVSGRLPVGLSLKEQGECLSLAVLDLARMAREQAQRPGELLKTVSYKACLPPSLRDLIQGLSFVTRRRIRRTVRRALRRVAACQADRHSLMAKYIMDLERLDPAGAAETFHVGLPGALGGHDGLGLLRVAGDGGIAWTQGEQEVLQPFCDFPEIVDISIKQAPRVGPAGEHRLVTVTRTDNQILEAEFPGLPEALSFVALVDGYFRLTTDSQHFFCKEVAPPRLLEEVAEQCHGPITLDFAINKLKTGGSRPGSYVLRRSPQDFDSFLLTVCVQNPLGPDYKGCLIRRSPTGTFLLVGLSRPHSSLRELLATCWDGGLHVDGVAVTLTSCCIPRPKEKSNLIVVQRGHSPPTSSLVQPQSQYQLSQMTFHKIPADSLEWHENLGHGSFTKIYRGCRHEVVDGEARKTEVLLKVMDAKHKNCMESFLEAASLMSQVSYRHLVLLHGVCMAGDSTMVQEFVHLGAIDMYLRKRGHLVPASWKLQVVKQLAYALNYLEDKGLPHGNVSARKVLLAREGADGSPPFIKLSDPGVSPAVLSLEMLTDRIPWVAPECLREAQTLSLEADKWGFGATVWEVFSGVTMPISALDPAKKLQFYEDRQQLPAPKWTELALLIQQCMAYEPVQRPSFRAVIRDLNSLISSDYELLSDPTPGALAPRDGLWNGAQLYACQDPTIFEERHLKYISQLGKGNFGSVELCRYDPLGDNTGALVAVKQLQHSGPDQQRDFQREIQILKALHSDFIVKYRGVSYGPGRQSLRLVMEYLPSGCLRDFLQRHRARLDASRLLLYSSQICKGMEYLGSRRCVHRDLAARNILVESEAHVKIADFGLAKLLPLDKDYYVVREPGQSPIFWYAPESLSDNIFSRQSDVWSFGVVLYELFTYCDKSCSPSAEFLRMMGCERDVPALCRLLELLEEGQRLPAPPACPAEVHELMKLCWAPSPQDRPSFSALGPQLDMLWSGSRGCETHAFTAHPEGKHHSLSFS
Method in brief: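 Recombinant JAK3 (12 ng/mL solution) with ULight-JAK1 peptide (300 nM solution) and ATP (15 μM solution) in HEPES pH 7.5 buffer, 1 h at room temperature. EDTA stop with Eu-anti-phosphotyrosine antibody; TR-FRET at 665 nm. Inhibition relative to enzyme-free wells as 100%.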

[2] = target: T2, JAK2 (Homo sapiens, UniProt O60674); assay: JAK2 enzyme inhibition test (LANCE method); settings: 1 μM test compound; read-out: JAK2 enzyme inhibitory activity (%, 1 μM)
T2 construct: purchased Invitrogen
Method in brief: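 Recombinant JAK2 (6 ng/mL solution) phosphorylated ULight-JAK1 peptide (300 nM solution) with ATP (45 μM solution) in pH 7.5 HEPES/MgCl2/DTT buffer for 1 hr at room temperature. After EDTA stop and europium anti-phosphotyrosine antibody for 1 hr, TR-FRET read at 665 nm; inhibition relative to enzyme-free wells as 100%.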

[3] = target: T3, JAK1 (Homo sapiens, UniProt P23458); assay: JAK1 enzyme inhibition test (LANCE method); settings: 1 μM test compound; read-out: JAK1 enzyme inhibitory activity (%, 1 μM)
T3 construct: purchased Invitrogen
Method in brief: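 TR-FRET (LANCE) with ULight-JAK1 peptide (300 nM working solution) and ATP (150 μM working solution) in HEPES pH 7.5, MgCl2, EGTA, DTT buffer; 1 h at room temperature. EDTA stop plus Eu-anti-phosphotyrosine antibody, 665 nm read after 1 h. Inhibition relative to enzyme-free wells as 100%.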

[4] = target: T4, TYK2 (Homo sapiens, UniProt P29597); assay: TYK2 enzyme inhibition test (LANCE method); settings: 1 μM test compound; read-out: TYK2 enzyme inhibitory activity (%, 1 μM)
T4 construct: purchased Invitrogen
Method in brief: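 Recombinant TYK2 (375 ng/mL working solution) with ULight-JAK1 peptide (300 nM working solution) and ATP (30 μM working solution) in HEPES pH 7.5 buffer with MgCl2, EGTA, DTT, Tween20, BSA, reacted 1 h at RT. EDTA-stopped, Eu-anti-phosphotyrosine TR-FRET read at 665 nm; inhibition relative to enzyme-free wells as 100%.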

T2 sequence (O60674 whole entry): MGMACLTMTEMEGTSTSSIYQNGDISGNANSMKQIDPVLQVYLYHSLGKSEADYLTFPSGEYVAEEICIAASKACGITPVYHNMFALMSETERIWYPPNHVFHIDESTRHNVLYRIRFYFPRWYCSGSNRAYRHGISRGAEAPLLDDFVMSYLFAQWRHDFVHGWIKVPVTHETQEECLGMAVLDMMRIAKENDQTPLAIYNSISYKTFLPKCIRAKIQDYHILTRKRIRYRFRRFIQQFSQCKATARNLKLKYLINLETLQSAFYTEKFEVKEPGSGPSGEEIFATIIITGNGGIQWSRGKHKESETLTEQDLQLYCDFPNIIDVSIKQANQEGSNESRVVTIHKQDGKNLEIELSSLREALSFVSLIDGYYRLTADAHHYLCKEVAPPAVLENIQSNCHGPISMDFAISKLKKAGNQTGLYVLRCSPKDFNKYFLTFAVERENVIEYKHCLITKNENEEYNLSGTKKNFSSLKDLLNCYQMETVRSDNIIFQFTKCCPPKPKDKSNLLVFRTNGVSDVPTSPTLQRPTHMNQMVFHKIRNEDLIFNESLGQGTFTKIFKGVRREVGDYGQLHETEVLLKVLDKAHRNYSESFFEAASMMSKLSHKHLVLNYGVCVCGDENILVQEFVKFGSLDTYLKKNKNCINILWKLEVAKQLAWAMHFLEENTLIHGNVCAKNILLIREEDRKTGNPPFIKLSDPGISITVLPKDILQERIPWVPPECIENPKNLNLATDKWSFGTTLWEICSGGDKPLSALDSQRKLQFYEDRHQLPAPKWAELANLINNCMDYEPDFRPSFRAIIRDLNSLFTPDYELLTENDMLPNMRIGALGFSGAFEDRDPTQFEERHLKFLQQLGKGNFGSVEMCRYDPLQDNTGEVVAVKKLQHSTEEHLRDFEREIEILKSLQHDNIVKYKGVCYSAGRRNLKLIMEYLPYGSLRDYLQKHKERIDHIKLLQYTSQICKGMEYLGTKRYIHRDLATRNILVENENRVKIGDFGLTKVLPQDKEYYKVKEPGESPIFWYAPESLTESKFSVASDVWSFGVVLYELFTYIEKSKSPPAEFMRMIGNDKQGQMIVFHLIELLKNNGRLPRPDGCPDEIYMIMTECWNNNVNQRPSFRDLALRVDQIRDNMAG
T3 sequence (P23458 whole entry): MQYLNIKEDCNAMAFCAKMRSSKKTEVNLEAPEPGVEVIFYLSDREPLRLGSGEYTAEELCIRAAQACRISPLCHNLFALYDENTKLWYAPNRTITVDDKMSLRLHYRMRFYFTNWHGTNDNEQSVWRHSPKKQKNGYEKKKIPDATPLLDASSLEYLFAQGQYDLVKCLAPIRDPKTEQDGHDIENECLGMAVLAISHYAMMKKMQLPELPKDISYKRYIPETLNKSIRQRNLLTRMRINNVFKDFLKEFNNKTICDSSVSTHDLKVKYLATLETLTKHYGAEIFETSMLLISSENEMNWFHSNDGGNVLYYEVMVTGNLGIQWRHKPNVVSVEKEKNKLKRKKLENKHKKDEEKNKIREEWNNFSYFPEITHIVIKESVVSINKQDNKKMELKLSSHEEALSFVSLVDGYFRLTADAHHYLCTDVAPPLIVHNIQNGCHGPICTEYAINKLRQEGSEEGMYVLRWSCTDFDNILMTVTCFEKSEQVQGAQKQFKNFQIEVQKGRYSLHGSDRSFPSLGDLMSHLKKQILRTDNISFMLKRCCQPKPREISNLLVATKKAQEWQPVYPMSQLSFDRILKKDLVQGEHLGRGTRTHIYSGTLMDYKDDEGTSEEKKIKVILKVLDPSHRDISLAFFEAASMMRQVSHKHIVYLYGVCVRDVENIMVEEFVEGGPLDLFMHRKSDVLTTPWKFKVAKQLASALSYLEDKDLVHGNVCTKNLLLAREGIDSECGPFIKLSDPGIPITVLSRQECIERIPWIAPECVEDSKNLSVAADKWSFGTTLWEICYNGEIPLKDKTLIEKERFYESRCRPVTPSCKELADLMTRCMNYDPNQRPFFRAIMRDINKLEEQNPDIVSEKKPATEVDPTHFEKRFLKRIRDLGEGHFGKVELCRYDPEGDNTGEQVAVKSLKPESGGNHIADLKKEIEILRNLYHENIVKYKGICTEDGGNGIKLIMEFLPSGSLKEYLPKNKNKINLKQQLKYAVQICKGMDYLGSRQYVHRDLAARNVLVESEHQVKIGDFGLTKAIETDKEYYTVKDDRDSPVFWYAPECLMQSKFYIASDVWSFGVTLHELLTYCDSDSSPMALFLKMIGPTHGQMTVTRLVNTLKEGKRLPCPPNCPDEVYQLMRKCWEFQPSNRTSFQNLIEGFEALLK
T4 sequence (P29597 whole entry): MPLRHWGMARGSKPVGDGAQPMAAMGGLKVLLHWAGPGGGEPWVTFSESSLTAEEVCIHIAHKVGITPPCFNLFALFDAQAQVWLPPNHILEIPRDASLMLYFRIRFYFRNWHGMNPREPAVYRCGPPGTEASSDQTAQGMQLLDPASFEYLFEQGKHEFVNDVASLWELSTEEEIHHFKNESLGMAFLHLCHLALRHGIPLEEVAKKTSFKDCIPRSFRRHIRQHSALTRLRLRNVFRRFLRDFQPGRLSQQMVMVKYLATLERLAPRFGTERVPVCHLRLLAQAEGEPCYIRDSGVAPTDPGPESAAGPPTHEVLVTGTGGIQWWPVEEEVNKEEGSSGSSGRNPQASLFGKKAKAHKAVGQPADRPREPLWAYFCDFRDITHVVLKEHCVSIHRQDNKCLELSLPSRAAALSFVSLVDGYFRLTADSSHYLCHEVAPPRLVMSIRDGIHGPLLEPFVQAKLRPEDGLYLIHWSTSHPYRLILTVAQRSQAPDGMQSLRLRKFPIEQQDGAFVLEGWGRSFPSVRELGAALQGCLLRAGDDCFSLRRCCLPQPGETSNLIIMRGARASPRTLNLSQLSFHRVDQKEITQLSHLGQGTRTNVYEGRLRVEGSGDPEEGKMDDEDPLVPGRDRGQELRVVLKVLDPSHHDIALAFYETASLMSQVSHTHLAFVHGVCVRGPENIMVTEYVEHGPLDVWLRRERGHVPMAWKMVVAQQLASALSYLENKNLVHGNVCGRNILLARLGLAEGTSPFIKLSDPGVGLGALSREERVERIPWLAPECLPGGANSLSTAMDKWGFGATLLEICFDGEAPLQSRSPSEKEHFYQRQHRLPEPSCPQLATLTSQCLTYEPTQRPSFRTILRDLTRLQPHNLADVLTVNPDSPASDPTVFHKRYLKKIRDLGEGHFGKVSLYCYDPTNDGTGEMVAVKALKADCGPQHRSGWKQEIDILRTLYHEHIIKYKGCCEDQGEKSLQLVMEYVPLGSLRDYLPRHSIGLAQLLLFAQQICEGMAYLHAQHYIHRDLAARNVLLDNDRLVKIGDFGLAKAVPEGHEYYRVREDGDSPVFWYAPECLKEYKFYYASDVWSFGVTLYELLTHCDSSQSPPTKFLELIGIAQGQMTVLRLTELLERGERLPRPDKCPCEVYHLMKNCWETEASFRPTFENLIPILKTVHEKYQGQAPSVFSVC

Row | SMILES | inhibition at 1 µM [1] | inhibition at 1 µM [2] | inhibition at 1 µM [3] | inhibition at 1 µM [4]
1 | CC(C)[C@H](C)n1cc(-c2cc(N3CCCC3)n(C)n2)c2[nH]nc(N)c2c1=O [Example 27, 3-amino-5-((2S)-3-methylbutan-2-yl)-7-(1-methyl-5-(pyrrolidin-1-yl)-1H-pyrazol-3-yl)-1,5-dihydro-4H-pyrazolo[4,3-c]pyridin-4-one] | 100% | 98% | 98% | 100%
2 | CCn1nc(-c2cn([C@@H](C)C(C)C)c(=O)c3c(N)n[nH]c23)cc1N1CCS(=O)(=O)CC1 [Example 28, 3-amino-7-(5-(1,1-dioxidothiomorpholin-4-yl)-1-ethyl-1H-pyrazol-3-yl)-5-((2S)-3-methylbutan-2-yl)-1,5-dihydro-4H-pyrazolo[4,3-c]pyridin-4-one] | 95% | 90% | 78% | 98%
3 | CC(C)[C@H](C)n1cc(-c2cc(N3CCS(=O)(=O)CC3)n(CC(F)(F)F)n2)c2[nH]nc(N)c2c1=O [Example 29, 3-amino-7-(5-(1,1-dioxidothiomorpholin-4-yl)-1-(2,2,2-trifluoroethyl)-1H-pyrazol-3-yl)-5-((2S)-3-methylbutan-2-yl)-1,5-dihydro-4H-pyrazolo[4,3-c]pyridin-4-one] | 67% | 49% | 47% | 93%
4 | CC(C)[C@H](C)n1cc(-c2cc(N3CCOC(C)(C)C3)n(C)n2)c2[nH]nc(N)c2c1=O [Example 30, 3-amino-7-(5-(2,2-dimethylmorpholin-4-yl)-1-methyl-1H-pyrazol-3-yl)-5-((2S)-3-methylbutan-2-yl)-1,5-dihydro-4H-pyrazolo[4,3-c]pyridin-4-one] | 99% | 99% | 97% | 99%
5 | CC1CN(c2cc(-c3cn([C@@H](C)C(C)C)c(=O)c4c(N)n[nH]c34)nn2C)CCO1 (stereo partly drawn) [Example 31, 3-amino-5-((2S)-3-methylbutan-2-yl)-7-(1-methyl-5-(2-methylmorpholin-4-yl)-1H-pyrazol-3-yl)-1,5-dihydro-4H-pyrazolo[4,3-c]pyridin-4-one] | 99% | 98% | 97% | 99%
6 | CC(C)[C@H](C)n1cc(-c2cc(N3CCN4CCCC4C3)n(C)n2)c2[nH]nc(N)c2c1=O (stereo partly drawn) [Example 32, 3-amino-7-(5-(hexahydropyrrolo[1,2-a]pyrazin-2 (H)-yl)-1-methyl-1H-pyrazol-3-yl)-5-((2S)-3-methylbutan-2-yl)-1,5-dihydro-4H-pyrazolo[4,3-c]pyridin-4-one] | 99% | 98% | 96% | 99%
7 | CC(C)[C@H](C)n1cc(-c2cc(N3CCC(C)(O)C3)n(C)n2)c2[nH]nc(N)c2c1=O (stereo partly drawn) [Example 33, 3-amino-7-(5-(3-hydroxy-3-methylpyrrolidin-1-yl)-1-methyl-1H-pyrazol-3-yl)-5-((2S)-3-methylbutan-2-yl)-1,5-dihydro-4H-pyrazolo[4,3-c]pyridin-4-one] | 99% | 98% | 96% | 99%
8 | CC(C)[C@H](C)n1cc(-c2cc(N3CCC4(CC3)COC4)n(C)n2)c2[nH]nc(N)c2c1=O [Example 34, 3-amino-5-((2S)-3-methylbutan-2-yl)-7-(1-methyl-5-(2-oxa-7-azaspiro[3.5]non-7-yl)-1H-pyrazol-3-yl)-1,5-dihydro-4H-pyrazolo[4,3-c]pyridin-4-one] | 100% | 99% | 97% | 100%

Other lines, results leading:

Row | inhibition at 1 µM [1] | inhibition at 1 µM [2] | inhibition at 1 µM [3] | inhibition at 1 µM [4] | SMILES
9 | 100% | 99% | 97% | 99% | CC(C)[C@H](C)n1cc(-c2cc(C3(O)CCOCC3)n(C)n2)c2[nH]nc(N)c2c1=O [Example 35, 3-amino-7-(5-(4-hydroxytetrahydro-2H-pyran-4-yl)-1-methyl-1H-pyrazol-3-yl)-5-((2S)-3-methylbutan-2-yl)-1,5-dihydro-4H-pyrazolo[4,3-c]pyridin-4-one]
10 | 85% | 80% | 55% | 91% | COCCn1nc(-c2cn([C@@H](C)C(C)C)c(=O)c3c(N)n[nH]c23)cc1C(C)(C)O [Example 36, 3-amino-7-(5-(2-hydroxypropan-2-yl)-1-(2-methoxyethyl)-1H-pyrazol-3-yl)-5-((2S)-3-methylbutan-2-yl)-1,5-dihydro-4H-pyrazolo[4,3-c]pyridin-4-one]
11 | 100% | 99% | 98% | 99% | CC(C)[C@H](C)n1cc(-c2cc(C3(O)CCC(F)(F)CC3)n(C)n2)c2[nH]nc(N)c2c1=O [Example 37, 3-amino-7-(5-(4,4-difluoro-1-hydroxycyclohexyl)-1-methyl-1H-pyrazol-3-yl)-5-((2S)-3-methylbutan-2-yl)-1,5-dihydro-4H-pyrazolo[4,3-c]pyridin-4-one]
12 | 100% | 99% | 99% | 100% | CC(C)[C@H](C)n1cc(-c2cc(C3(O)CCC3)n(C)n2)c2[nH]nc(N)c2c1=O [Example 38, 3-amino-7-(5-(1-hydroxycyclobutyl)-1-methyl-1H-pyrazol-3-yl)-5-((2S)-3-methylbutan-2-yl)-1,5-dihydro-4H-pyrazolo[4,3-c]pyridin-4-one]
13 | 100% | 99% | 99% | 100% | CC(C)[C@H](C)n1cc(-c2cc(C3=CCOCC3)n(C)n2)c2[nH]nc(N)c2c1=O [Example 39, 3-amino-7-(5-(3,6-dihydro-2H-pyran-4-yl)-1-methyl-1H-pyrazol-3-yl)-5-((2S)-3-methylbutan-2-yl)-1,5-dihydro-4H-pyrazolo[4,3-c]pyridin-4-one]
14 | 99% | 98% | 99% | 100% | CNC(=O)c1ccc(-c2cc(-c3cn([C@@H](C)C(C)C)c(=O)c4c(N)n[nH]c34)nn2C)cc1 [Example 40, 4-(3-(3-amino-5-((2S)-3-methylbutan-2-yl)-4-oxo-4,5-dihydro-1H-pyrazolo[4,3-c]pyridin-7-yl)-1-methyl-1H-pyrazol-5-yl)-N-methylbenzamide]
15 | 100% | 99% | 97% | 101% | CC(C)[C@H](C)n1cc(-c2cc(N3CCOCC3)n(C)n2)c2[nH]nc(N)c2c1=O [Example 41, 3-amino-5-((2S)-3-methylbutan-2-yl)-7-(1-methyl-5-(morpholin-4-yl)-1H-pyrazol-3-yl)-1,5-dihydro-4H-pyrazolo[4,3-c]pyridin-4-one]
